Experimental data: ChEMBL document CHEMBL5543109, “Novel β-Hairpin Antimicrobial Peptide Containing the β-Turn Sequence of -NG- and the Tryptophan Zippers Facilitate Self-Assembly into Nanofibers, Exhibiting Excellent Antimicrobial Performance” (J Med Chem, 2024)
Converted amounts (≈) assume the structure as drawn. Residues, ends and D or L forms follow the SMILES beside them.

Columns and labels:
Staphylococcus aureus [1] = assay: Antibacterial activity against methicillin resistant Staphylococcus aureus incubated for 18 hrs by broth microdilution method; format: functional
Staphylococcus aureus [2] = assay: Antibacterial activity against Staphylococcus aureus ATCC 25923 incubated for 18 hrs by broth microdilution method; format: functional
Staphylococcus aureus [3] = assay: Antibacterial activity against rifampicin resistant Staphylococcus aureus incubated for 18 hrs by broth microdilution method; format: functional
Escherichia coli [4] = assay: Antibacterial activity against Escherichia coli ATCC 25922 incubated for 18 hrs by broth microdilution method; format: functional
Staphylococcus aureus [5] = assay: Antibacterial activity against Staphylococcus aureus incubated for 18 hrs by broth microdilution method; format: functional
Bacillus subtilis [6] = assay: Antibacterial activity against Bacillus subtilis ATCC 23857 incubated for 18 hrs by broth microdilution method; format: functional
Staphylococcus aureus [7] = assay: Antibacterial activity against methicillin resistant Staphylococcus aureus 75 incubated for 18 hrs by broth microdilution method; format: functional
Klebsiella pneumoniae [8] = assay: Antibacterial activity against Klebsiella pneumoniae ATCC 700603 incubated for 18 hrs by broth microdilution method; format: functional
Staphylococcus aureus [9] = assay: Antibacterial activity against methicillin resistant Staphylococcus aureus 113 incubated for 18 hrs by broth microdilution method; format: functional
Pseudomonas aeruginosa [10] = assay: Antibacterial activity against Pseudomonas aeruginosa ATCC 27853 incubated for 18 hrs by broth microdilution method; format: functional
Staphylococcus aureus [11] = assay: Antibacterial activity against Staphylococcus aureus S125 incubated for 18 hrs by broth microdilution method; format: functional
Staphylococcus aureus [12] = assay: Antibacterial activity against kanamycin resistant Staphylococcus aureus incubated for 18 hrs by broth microdilution method; format: functional
Escherichia coli [13] = assay: Antibacterial activity against rifampicin resistant Escherichia coli incubated for 18 hrs by broth microdilution method; format: functional
Escherichia coli [14] = assay: Antibacterial activity against Escherichia coli incubated for 18 hrs by broth microdilution method; format: functional
Escherichia coli [15] = assay: Antibacterial activity against kanamycin resistant Escherichia coli incubated for 18 hrs by broth microdilution method; format: functional
Staphylococcus aureus [16] = assay: Antibacterial activity against Staphylococcus aureus S794 incubated for 18 hrs by broth microdilution method; format: functional
[17] = test system: Staphylococcus epidermidis; assay: Antibacterial activity against Staphylococcus epidermidis ATCC 12228 incubated for 18 hrs by broth microdilution method; format: functional
[18] = test system: Staphylococcus epidermidis; assay: Bactericidal activity against Staphylococcus epidermidis ATCC 12228 incubated for 18 hrs by broth microdilution method; format: functional
Klebsiella pneumoniae [19] = assay: Bactericidal activity against Klebsiella pneumoniae ATCC 700603 incubated for 18 hrs by broth microdilution method; format: functional
Pseudomonas aeruginosa [20] = assay: Bactericidal activity against Pseudomonas aeruginosa ATCC 27853 incubated for 18 hrs by broth microdilution method; format: functional
Escherichia coli [21] = assay: Bactericidal activity against Escherichia coli ATCC 25922 incubated for 18 hrs by broth microdilution method; format: functional
Staphylococcus aureus [22] = assay: Antibacterial activity against Staphylococcus aureus at 2 times MIC preincubated for 1 hr with trypsin followed by enzyme inactivation and bacterial addition and measured after 18 hrs; format: functional; settings: time 19 hrs
Erythrocyte = assay: Hemolytic activity in mouse erythrocytes assessed as concentration required to cause 10% hemolysis incubated for 1 hr; format: toxicity, cell-based
Staphylococcus aureus [23] = assay: Antibacterial activity against Staphylococcus aureus at 2 times MIC preincubated for 1 hr with chymotrypsin followed by enzyme inactivation and bacterial addition and measured after 18 hrs; format: functional; settings: time 19 hrs
Staphylococcus aureus [24] = assay: Bactericidal activity against Staphylococcus aureus ATCC 25923 incubated for 18 hrs by broth microdilution method; format: functional
[25] = Retention time of the compound; format: physicochemical
Bacillus subtilis [26] = assay: Bactericidal activity against Bacillus subtilis ATCC 23857 incubated for 18 hrs by broth microdilution method; format: functional

| Compound | MIC (Staphylococcus aureus [1]) [µM] | MIC (Staphylococcus aureus [2]) [µM] | MIC (Staphylococcus aureus [3]) [µM] | MIC (Escherichia coli [4]) [µM] | MIC (Staphylococcus aureus [5]) [µM] | MIC (Bacillus subtilis [6]) [µM] | MIC (Staphylococcus aureus [7]) [µM] | MIC (Klebsiella pneumoniae [8]) [µM] | MIC (Staphylococcus aureus [9]) [µM] | MIC (Pseudomonas aeruginosa [10]) [µM] | MIC (Staphylococcus aureus [11]) [µM] | MIC (Staphylococcus aureus [12]) [µM] | MIC (Escherichia coli [13]) [µM] | MIC (Escherichia coli [14]) [µM] | MIC (Escherichia coli [15]) [µM] | MIC (Staphylococcus aureus [16]) [µM] | MIC [17] [µM] | also measured |
| --- | --- | --- | --- | --- | --- | --- | --- | --- | --- | --- | --- | --- | --- | --- | --- | --- | --- | --- |
| CC[C@H](C)[C@H](N)C1=N[C@H](C(=O)N[C@@H](CC(C)C)C(=O)N[C@H](CCC(=O)O)C(=O)N[C@H](C(=O)N[C@H]2CCCCNC(=O)[C@H](CC(N)=O)NC(=O)[C@@H](CC(=O)O)NC(=O)[C@H](Cc3cnc[nH]3)NC(=O)[C@@H](Cc3ccccc3)NC(=O)[C@H]([C@@H](C)CC)NC(=O)[C@@H](CCCN)NC2=O)[C@@H](C)CC)CS1 [BACITRACIN] (HELM PEPTIDE1{[CC[C@H](C)[C@H](N)C1=N[C@H](C(=O)[*:2])CS1].L.[dE].I.K.[NCCC[C@@H](N[*:1])C(=O)[*:2]].I.[dF].H.[dD].N}$PEPTIDE1,PEPTIDE1,5:R3-11:R2$$$V2.0) | 0.5 (≈ 0.711 µg/mL) | 32 (≈ 45.5 µg/mL) | 256 (≈ 364 µg/mL) | > 128 | 32 (≈ 45.5 µg/mL) | > 128 | 0.5 (≈ 0.711 µg/mL) | > 128 | 16 (≈ 22.8 µg/mL) | > 128 | 8 (≈ 11.4 µg/mL) | 16 (≈ 22.8 µg/mL) | 256 (≈ 364 µg/mL) | 256 (≈ 364 µg/mL) | 256 (≈ 364 µg/mL) | 256 (≈ 364 µg/mL) | 16 (≈ 22.8 µg/mL) | – |
| C[C@@H](O)[C@H]1C(=O)N2C(C(=O)O)=C(S[C@@H]3CN[C@H](C(=O)N(C)C)C3)[C@H](C)[C@H]12 [MEROPENEM] | 32 (≈ 12.3 µg/mL) | – | 0.5 (≈ 0.192 µg/mL) | – | 0.5 (≈ 0.192 µg/mL) | – | 128 (≈ 49.1 µg/mL) | – | 0.5 (≈ 0.192 µg/mL) | – | 0.5 (≈ 0.192 µg/mL) | 0.5 (≈ 0.192 µg/mL) | 0.5 (≈ 0.192 µg/mL) | 0.5 (≈ 0.192 µg/mL) | 0.5 (≈ 0.192 µg/mL) | 0.5 (≈ 0.192 µg/mL) | – | – |
| NCCCC[C@@H](NC(=O)[C@H](N)Cc1c[nH]c2ccccc12)C(=O)N[C@H](Cc1c[nH]c2ccccc12)C(=O)N[C@H](CCCCN)C(=O)N[C@H](Cc1c[nH]c2ccccc12)C(=O)N1CCC[C@@H]1C(=O)N1CCC[C@H]1C(=O)N[C@H](Cc1c[nH]c2ccccc12)C(=O)N[C@H](CCCCN)C(=O)N[C@H](Cc1c[nH]c2ccccc12)C(=O)N[C@H](CCCCN)C(=O)N[C@H](Cc1c[nH]c2ccccc12)C(N)=O | – | 4 (≈ 7.36 µg/mL) | – | 4 (≈ 7.36 µg/mL) | – | 2 (≈ 3.68 µg/mL) | – | 8 (≈ 14.7 µg/mL) | – | 8 (≈ 14.7 µg/mL) | – | – | – | – | – | – | 4 (≈ 7.36 µg/mL) | MBC [18]: 8 µM (≈ 14.7 µg/mL); MBC (Klebsiella pneumoniae [19]): 16 µM (≈ 29.5 µg/mL); MBC (Pseudomonas aeruginosa [20]): 32 µM (≈ 58.9 µg/mL); MBC (Escherichia coli [21]): 4 µM (≈ 7.36 µg/mL); Activity (Staphylococcus aureus [22]): 100%; MHC (Erythrocyte): 243.5 µM; Activity (Staphylococcus aureus [23]): 100%; MBC (Staphylococcus aureus [24]): 8 µM (≈ 14.7 µg/mL); Retention_time [25]: 14.321 min; MBC (Bacillus subtilis [26]): 2 µM (≈ 3.68 µg/mL) |
| NC[C@H]1O[C@H](O[C@H]2[C@H](O)[C@@H](O[C@H]3O[C@H](CO)[C@@H](O)[C@H](N)[C@H]3O)[C@H](N)C[C@@H]2N)[C@H](O)[C@@H](O)[C@@H]1O [KANAMYCIN] | 256 (≈ 124 µg/mL) | < 1 | 4 (≈ 1.94 µg/mL) | 8 (≈ 3.88 µg/mL) | 0.5 (≈ 0.242 µg/mL) | < 1 | 256 (≈ 124 µg/mL) | 64 (≈ 31 µg/mL) | 256 (≈ 124 µg/mL) | > 128 | 256 (≈ 124 µg/mL) | 256 (≈ 124 µg/mL) | 4 (≈ 1.94 µg/mL) | 4 (≈ 1.94 µg/mL) | 256 (≈ 124 µg/mL) | 16 (≈ 7.75 µg/mL) | > 128 | – |
| CO[C@H]1/C=C/O[C@@]2(C)Oc3c(C)c(O)c4c(O)c(c(/C=N/N5CCN(C)CC5)c(O)c4c3C2=O)NC(=O)/C(C)=C\C=C\[C@H](C)[C@H](O)[C@@H](C)[C@@H](O)[C@@H](C)[C@H](OC(C)=O)[C@@H]1C [RIFAMPIN] | 256 (≈ 211 µg/mL) | < 1 | 64 (≈ 52.7 µg/mL) | 16 (≈ 13.2 µg/mL) | 0.5 (≈ 0.411 µg/mL) | < 1 | 256 (≈ 211 µg/mL) | 64 (≈ 52.7 µg/mL) | 0.5 (≈ 0.411 µg/mL) | 32 (≈ 26.3 µg/mL) | 0.5 (≈ 0.411 µg/mL) | 4 (≈ 3.29 µg/mL) | 256 (≈ 211 µg/mL) | 16 (≈ 13.2 µg/mL) | 32 (≈ 26.3 µg/mL) | 32 (≈ 26.3 µg/mL) | < 1 | – |
| C[C@@H](O)[C@H]1C(=O)N2C(C(=O)O)=C(SCCNC=N)C[C@H]12 [IMIPENEM ANHYDROUS] | 32 (≈ 9.58 µg/mL) | – | 0.5 (≈ 0.15 µg/mL) | – | 0.5 (≈ 0.15 µg/mL) | – | 256 (≈ 76.6 µg/mL) | – | 0.5 (≈ 0.15 µg/mL) | – | 0.5 (≈ 0.15 µg/mL) | 0.5 (≈ 0.15 µg/mL) | 0.5 (≈ 0.15 µg/mL) | 0.5 (≈ 0.15 µg/mL) | 8 (≈ 2.39 µg/mL) | 0.5 (≈ 0.15 µg/mL) | – | – |
| CO/N=C(\C(=O)N[C@@H]1C(=O)N2C(C(=O)O)=C(COC(C)=O)CS[C@H]12)c1csc(N)n1 [CEFOTAXIME] | 256 (≈ 117 µg/mL) | 2 (≈ 0.911 µg/mL) | 0.5 (≈ 0.228 µg/mL) | < 1 | 2 (≈ 0.911 µg/mL) | 64 (≈ 29.2 µg/mL) | 256 (≈ 117 µg/mL) | 4 (≈ 1.82 µg/mL) | 32 (≈ 14.6 µg/mL) | 8 (≈ 3.64 µg/mL) | 8 (≈ 3.64 µg/mL) | 0.5 (≈ 0.228 µg/mL) | 0.5 (≈ 0.228 µg/mL) | 0.5 (≈ 0.228 µg/mL) | 64 (≈ 29.2 µg/mL) | 256 (≈ 117 µg/mL) | < 1 | – |
